The subject of assay [1] is THP1/LXR-Luc cells. The experiment in a line: THP1/LXR-Luc luciferase reporter bioassay. The format is cell-based. The conditions noted are these: Homo sapiens, THP-1, 48 hours. The essentials:
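THP1 cells stably carrying an LXR-response-element firefly luciferase reporter were seeded at 30,000/well in RPMI/10% FBS and given 3-fold dilutions (100 nM to 0.01 nM) for 48 or 72 h. Luminescence was read with One-Glo. EC50 came from a 4-parameter fit of a 10-point curve, and fold activation was taken relative to maximal free-payload activation.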
(In general: Reporter assays use an easily measured gene product as a stand-in for the process of interest.)

For assay [2], the system named is THP1/LXR-Luc/Her2 cells. Briefly: THP1/LXR-Luc/Her2 luciferase reporter bioassay. The class given is cell-based. The conditions noted are these: Homo sapiens. The source says:
A bioassay was developed to assess the activity of LXR agonists after internalization of an agonist or of a ncADC into cells and binding to LXR, a nuclear receptor, using a commercially available LXR reporter (referred to as LXR-Luc) that contains the firefly luciferase gene under control by minimal CMV promoter and tandem repeats of the LXR transcriptional response element. For this assay, a THP1 cell line, which is a human monocytic leukaemia line, was engineered to express full length human Her2 (expressing amino acids M1 through V1255 of accession number NP_004439.2). The subsequent stable cell line was further transduced with a Cignal LXR Luc Reporter (Qiagen, Cat # CLS-7041L). The resulting stable cell line is referred to herein as THP1/Her2/LXR-Luc. The Her2 cell surface expression on THP1/Her2/LXR-Luc cell line was confirmed by FACS (data not shown).
This example assessed the ability of the LXR agonists provided herein, reference compounds, and anti-Her2 antibody-LXR ncADC to activate LXR. The samples were tested in the THP1/LXR-Luc/Her2 bioassay. For the assay, either THP1/LXR-Luc cells or THP1/LXR-Luc/Her2 cells were seeded onto white 96 well plates at 30,000 cells/well in media containing RPMI supplemented with 10% FBS and pencillin/streptomycin (complete media). Subsequently 3-fold serial dilutions of antibody drug conjugates, unconjugated antibodies, or free payloads were added to the cells at final concentration ranging from 100 nM to 0.01 nM. After 48-hour or 72-hour incubation, luciferase activity was determined after the addition of One-Glo™ reagent (Promega, Cat # E6130) to each well of cells. Relative light units (RLUs) were measured on a Victor luminometer (PerkinElmer) and the EC5o values were determined using a four-parameter logistic equation over a 10-point dose response curve (GraphPad Prism) (FIG. 15). The fold activation is calculated based on the maximum activation of the free payload 9d.

Assay [3] deals with ABCG1. The experiment in a line: ABCG1 mRNA induction in differentiated THP-1 macrophages (TaqMan). The class given is cell-based, human. As to conditions: THP1 macrophages, 24-hour treatment; magnitude in words. The procedure:
To determine the ability of LXR agonists to activate ABCA1 and ABCG1 genes, the mRNA levels of these two genes in differentiated macrophages was measured. […] Cells were differentiated into macrophages by treatment with 100 nM Phorbol-12 myristate 13-acetate (Sigma, # P8139), which was added to the media described above, for 72 hours. […] Chloroform was then used for phase separation. The aqueous phase, containing total RNA, was purified using MagMAX™-96 for Microarrays Total RNA Isolation Kit (Ambion, Cat # AM1830) and reverse-transcribed into cDNA using SuperScript® VILO™ Master Mix (Invitrogen, Cat #11755050) as per the manufacturer's instructions. TaqMan® was performed using Gene Expression Master Mix, the ABI 7900HT Sequence Detection System (Applied Biosystems) and the primers and probes indicated below in Table 9. The GAPDH gene was used as the internal control gene to normalize any cDNA input differences.
Background: Real-time PCR tracks product formation cycle by cycle.

In assay [4] the test system is THP1/LXR-Luc cells. Briefly: LXR-luciferase reporter bioassay in PMA-differentiated THP1/LXR-Luc cells. The conditions noted are these: for EC50: Homo sapiens, THP-1, 48 h, read-out: EC50. The class given is cell-based, human. An excerpt:
To test the efficacy of anti-MSR1 antibody-LXR conjugates in vitro, a cell-based LXR responsive luciferase reporter assay was developed. To generate the assay cell line, a LXR regulated luciferase reporter gene [Cignal Lenti LXR Reporter (luc) kit (Qiagen, Cat # CLS-001L)] was transduced into THP1 cells, and cells were selected for two weeks in puromycin. The lentivirus expresses the firefly luciferase gene under the control of a minimal CMV promoter and tandem repeats of the LXR transcriptional response element. The resulting cell line is referred to as THP1/LXR-Luc cells.
THP1/LXR-Luc cells were seeded onto 96 well plates at 40,000 cells/well in media containing RPMI supplemented with 10% FBS and pencillin/streptomycin and subsequently differentiated with 200 nM Phorbol Myristate Acetate (PMA) for 3 days. After the 3-day differentiation period, three-fold serial dilutions of antibody drug conjugates, unconjugated antibodies, or free payloads in fresh media were added to the cells at final concentration ranging from 100 nM to 0.01 nM. Media alone served as a blank control. Forty-eight hours later, luciferase activity was determined after the addition of One-Glo™ reagent (Promega, Cat # E6130) to each well. Relative light units (RLUs) were measured on a Victor luminometer (PerkinElmer) and EC50 values were determined using a four-parameter logistic equation over a 10-point dose response curve (GraphPad Prism). The signal to noise (S/N) was determined by calculating the ratio of RLU of standard one over RLU of standard eight for each of the unconjugated anti-MSR1 antibodies or free payloads. “LP #” represents a linker-payload for which the corresponding structures are provided elsewhere herein, and “P #” represents a payload for which the corresponding structures are provided elsewhere herein.

The test system of assay [5] is THP-1 cells. The experiment in a line: BODIPY-cholesterol efflux in THP-1 macrophages. The format is cell-based, human. As to conditions: for EC50: Homo sapiens, THP-1. The procedure:
The ability of anti-MSR1 antibody-LXR conjugates to activate cholesterol efflux in a human macrophage cell line (THP-1; ATCC Catalog # TIB-202), was assessed using a fluorescent cholesterol analog.
Cells were differentiated into macrophages by addition of 100 nM Phorbol-12 myristate 13-acetate (Sigma, Catalog #P 8139) to the media and subjected to further incubation for 96 hours.
Percentage of BODIPY-cholesterol efflux was calculated using the following formula: [fluorescence in acceptor media/(fluorescence in acceptor media+fluorescence in cell lysate)]×100. Table 15 provides activated cholesterol efflux for the tested articles, and FIG. 15 illustrates the data in graph form.

Values joined by “and” are separate entries in the source; they are usually repeats but may differ in a detail not shown here. Equal values may be shown once. Read-outs that look alike come from different tables or passages of the source.

As for `C[C@]1(C(=O)NC(=O)[C@@]2(C)CCC[C@]3(C)c4cc(O)ccc4CC[C@@H]23)CCC[C@]2(C)c3cc(N)ccc3CC[C@@H]12` [Compound 9d, (1S,4aS,10aR)—N-[(1S,4aS,10aR)-6-Amino-1,4a-dimethyl-1,2,3,4,4a,9,10,10a-octahydrophenanthrene-1-carbonyl]-6-hydroxy-1,4a-dimethyl-1,2,3,4,4a,9,10,10a-octahydrophenanthrene-1-carboxamide], the EC50 in assay [1] (read-out: Activation of THP1/LXR-Luc cells: EC50) was at most 1 nM; in assay [2] (THP-1, 48 h, 48-hour time point), 1.6 nM; in assay [2] (THP-1, 48 h, 48 hours, unit inferred, values correspond to M), 1.6 nM; in assay [2] (THP-1, 72 h, 72-hour time point), 2.8 nM; in assay [2] (THP-1, 72 h, 72 hours), 2.8 nM; in assay [4] (48-hour time point, stimulation of THP1/Luc cells), 15.9 nM. The EC50 worked out at 1.14 nM in assay [4] (PMA-differentiated THP1/LXR-Luc cells, 48 hours, luciferase activity (One-Glo), 10-point dose response 100 nM to 0.01 nM); 0.15 nM in assay [5] (24-hour treatment, read-out: Cholesterol Efflux activation EC50); 0.15 nM in assay [5] (after 24 hours, read-out: Cholesterol efflux EC50). Further, the Emax in assay [1] (relative to maximum activation of free payload 9d, read-out: Activation of THP1/LXR-Luc cells: Fold of activation) was above 75%. In assay [3], the “ABCG1 induction EC50” value is “sub-picomolar”. The “S/N (signal to noise, ratio of RLU of standard one over RLU of standard eight)” value in assay [4] (PMA-differentiated THP1/LXR-Luc cells, 48 hours, luciferase activity) worked out at 15.9. Moreover, the “Maximum efflux (%)” value in assay [5] (24-hour treatment, BODIPY-cholesterol efflux) is 36.6% and 36.7%.

Values taken from patent publication US12338199B2, “Bis-octahydrophenanthrene carboxamides and protein conjugates thereof” (REGENERON PHARMACEUTICALS, INC., priority 2017, dated 2025).
